Molecules are shown by their SMILES. Several values for one entry are separate records, joined by “and”; a condition that tells them apart may be missing. Identical values can stand only once. Like-named read-outs stand apart in the source and are kept apart here.

For assay [1], the system named is MDAMB231 breast cancer cell line. Briefly: In vitro antiproliferative assay (MTT assay), MDAMB231. It is filed as cell-based. Conditions: 48 hrs drug incubation, read-out: IC50 in micromolar, MDAMB231 (MTT assay). As for the experimental part:
(§1) MTT assay is a simple and sensitive assay where, metabolic reducing activity of the cells is measured. The increase of this activity in time is taken as a parameter of cell growth. If treatment with a drug impairs this increase, the action is a consequence of growth inhibition, cell killing or both. […] All cell lines were cultured in a 37° C. incubator with a 5% CO2 environment. Compounds were dissolved in DMSO with a concentration of 0.1M (stock solution). Cells were seeded into 96-well plates at suitable plating efficiency.
(§2) Following plating efficiencies were standardized for MTT assay:
(§3) In the MTT procedure, the cells were plated in 96 well plates as per predetermined plating efficiency (Table1). The plates were then incubated for 24 hrs in 5% CO2 atmosphere at 37° C. Appropriate concentrations of the drugs were then added to the plate and further incubation was carried out for 48 hrs (in 5% CO2 atmosphere at 37° C.). The assay plate was then centrifuged twice at 3000 rpm for 3 mins and supernatant was then discarded. 100 ul of MTT solution (0.5 mg/ml) was then added to each well of the plate and it was further incubated for 4 hrs (in 5% CO2 atmosphere at 37° C.) Following 4 hr incubation, the plate was then centrifuged twice, and supernatant was aspirated off very carefully. 200 ul of DMSO was then added to each well to solubilize. MTT crystals and mixed well by shaking the plate. XY graph of log percent viability was then plotted against log drug concentration.
Background: Tetrazolium assays rely on reduction of a dye to a coloured formazan, in cell work by metabolically active cells.

For assay [2], the system named is PC3 prostate cancer cell line. Briefly: In vitro antiproliferative assay (MTT assay), PC3. The format is cell-based. Conditions: 48 hrs drug incubation, read-out: IC50 in micromolar, PC3 (MTT assay). As for the experimental part: as §1, §2, §3
The subject of assay [3] is DU145 prostate cancer cell line. Briefly: In vitro antiproliferative assay (MTT assay), DU145. It is filed as cell-based. The conditions noted are these: 48 hrs drug incubation, read-out: IC50 in micromolar, DU145 (MTT assay). The protocol: as §1, §2, §3
Assay [4] concerns MDAMB231 breast cancer cell line. Briefly: Soft agar colony-formation assay, MDAMB231. It is filed as cell-based. The conditions noted are these: 1 week, Alamar Blue, read-out: IC50 in micromolar, MDAMB231 (Soft Agar Assay). The protocol: (§4) The Soft Agar Colony-formation Assay is an anchorage-independent growth assay in soft agar, which is one of the most stringent assays for detecting malignant transformation of cells. For this assay, malignant cells are cultured with appropriate controls in soft agar medium for 1-2 weeks. Following this incubation period, formed colonies can either be analyzed morphologically using cell stain and quantifying the number of colonies formed.
(§5) Briefly, for Soft Agar Assay a mixture of 50 ul of 2× medium (taken appropriately as per cell line) and 50 ul of 1.2% Bacto Agar were plated on to each well of 96 well micro titer assay plate. 10 ul of cells (of specific plating efficiency pre standardized for respective cell line) were mixed with 20 ul of 2× medium and 30 ul of 0.8% of Bacto Agar and 1.6 ul of drug (of appropriate concentration) in a vial and transferred to the solidified pre layers of the assay plates. The cells were then allowed to grow and form colonies at 37° C. and 5% C02 for 1 week. An intermittent feeding with 50 ul of appropriate 2× medium was performed after 3 days of experimental set up. 16 ul of Alamar Blue (1.5 mg/ml) was then added to all the wells to quantify the developed colonies. The plates were incubated for 24 hrs at 37° C. Absorbance was then measured at 630 nm. XY graph of log Percent viability was then plotted against log drug concentration.
(§6) Following plating efficiencies were standardized for Soft Agar Assay: […]

Assay [5] relates to PC3 prostate cancer cell line. Briefly: Soft agar colony-formation assay, PC3. The conditions noted are these: 1 week, Alamar Blue, read-out: IC50 in micromolar, PC3 (Soft Agar Assay). It is filed as cell-based. The protocol:
as §4, §5, §6
Background: The colour change of resazurin is a common sign of viable cells or microbes.

Assay [6] has as its system PC3 spheres (cancer stem cells). Briefly: In vitro sphere-forming assay (cancer stem cells), PC3 in Prostosphere media. The conditions noted are these: for 3D sphere count of PC3 in Prostosphere media: 2000 cells/well, n = 6 ± S.D; for viability at 250 µM: read-out: % Viability of spheres (PC3), 250 uM.
Excerpt: In Vitro Sphere-forming Assay: Sphere assay measures the ability of cancer stem cells (CSCs) to form spheres in specially designed serum-free medium.
Materials and Reagents:50×B27 Supplement (Life Technologies, Invitrogen, Catlog No.: 17502-044), Fibroblast Growth Factor (FGF) (Sigma-Aldrich, Catlog No.: F029125), Epidermal Growth Factor (EGF) (Sigma-Aldrich, Catlog No.: E9644), Insulin (Sigma, Catlog No.: 19278), Dulbecco's Modified Eagle Medium/F12 (HiMedia Catlog No.: AL139-6), Dulbecco's Phosphate Buffered Saline (HiMedia Catlog No.: TL1006), Trypan Blue (TC193), Prostate Epithelial Media (LONZA, Catlog No.: CC-3166) MEGM (LONZA, Catlog No.: CC-3051), Heparin (Sigma, Catlog No.: H3393), Penstrep (HiMedia, Catlog No.: A002)
Prostosphere Media Preparation (For 100 mL): 1 g methyl cellulose autoclaved with magnetic stirrer, 100 mL plain media (Prostate Epithelial Basal Medium) was added and dissolved, under magnetic stirring. After complete dissolution, Insulin—40 μL, B27—2 mL, EGF—80 μL, Penstrep—1 ml was added.
Procedure—The cells were trypsinised and made into single-cell suspension by passing through cell strainers (100 μl and 40 μl, respectively), The cells were diluted at a concentration of 2000 cells/100 μL and suspended in either Mammosphere (for breast cell lines) or Prostosphere (for prostate cell lines). 100 μL of this suspension was added into each well of 96-well suspension plates and incubated at 37 C, 50 CO2 for 24 hrs. Appropriate concentrations of the drugs (2 L) were added into respective wells with 100 μL of stem cell culture medium. Plates were incubated at 37° C., 50% CO2 for 72 hrs. After incubation, 2.5 μL of the respective drug concentration and 50 μL of stem cell culture medium were added into each well and the plates were further incubated at 37° C., 500 CO2 for 72 hrs. 3 μL of the respective drug concentration was added with 50 μL of stem cell culture medium again after incubation and plates were reincubated for 72 hrs at 37° C., 500 CO2. Number of primary spheres formed for each concentration were counted. The spheres were converted to 0 viability of spheres compared to untreated (Growth Control with DMSO, GCD).
In assay [7] the test system is MDAMB231 spheres (cancer stem cells). Briefly: In vitro sphere-forming assay (cancer stem cells), MDAMB231 in Mammosphere media. Conditions: for 3D sphere count of MDAMB231 in Mammosphere media: 2000 cells/well, n = 6 ± S.D; for viability at 0.025 µM / viability at 0.25 µM / viability at 2.5 µM / viability at 25 µM / viability at 250 µM: Homo sapiens.
Where [8] appears, read: read-out: % Viability of spheres (PC3), 0.025 uM, GCD = 100% viability.
[9] abbreviates: read-out: % Viability of spheres (PC3), 0.25 uM, GCD = 100% viability.
Setting [10] is: read-out: % Viability of spheres (PC3), 2.5 uM, GCD = 100% viability.
The mark [11] stands for this setting: read-out: % Viability of spheres (PC3), 25 uM, GCD = 100% viability.
The mark [12] stands for this setting: MDA-MB-231, read-out: % Viability of spheres (MDAMB231).
Where [13] appears, read: read-out: % Viability of spheres (PC3).

For the molecule `N.N.[Cl][Pt][Cl]` [Cisplatin, reference compound], the IC50 stood at 29.4 µM in assay [1]; 24 µM in assay [2]; 29.8 µM in assay [3]; 26.2 µM in assay [4]; 33.4 µM in assay [5]. The “3D sphere count of PC3 in Prostosphere media” value (“3D sphere count of PC3” below) in assay [6] (250 uM) is 29(±2) and 29(±5) and 25(±2) and 27(±2). Further, the “3D sphere count of MDAMB231 in Mammosphere media” value (shortened to “3D sphere count of MDAMB231”) in assay [7] (250 uM) is 24(±3) and 25(±2).

On to `CCOC(=O)N1CCN(CCCCCCOc2c3c(c(-c4ccc5c(c4)OCO5)c4cc(OC)c(OC)cc24)C(=O)OC3)CC1` [Formula III, ethyl 4-(6-(9-(benzo[d][1,3]dioxol-5-yl)-1,3-dihydro-6,7-dimethoxy-1-oxonaphtho[2,3-c]furan-4-yloxy)hexyl)piperazine-1-carboxylate], for which the IC50 in assay [1] stood at 6.68 µM; in assay [2] (48 h) it was 2.36 µM; in assay [3], 5.41 µM; in assay [4] it was 2.53 µM; in assay [5], 4.84 µM. Besides, the “3D sphere count of PC3” value was 49(±3) in assay [6] (0.025 uM); 38(±4) in assay [6] (0.25 uM); 29(±4) in assay [6] (2.5 uM); 23(±3) in assay [6] (25 uM); 0(±0) in assay [6] (250 uM). The viability at 0.025 µM in assay [6] (setting [8]) is 63%; in assay [7] (setting [12]), 53%. Further, the viability at 0.25 µM stood at 49% in assay [6] (setting [9]) and 45% in assay [7] (setting [12]). For the same molecule, the values for the viability at 2.5 µM in assay [6] (setting [10]) and in assay [7] (setting [12]) were 37% and 39%, respectively. In addition, the results for the viability at 25 µM in assay [6] (setting [11]) and in assay [7] (setting [12]) were 29% and 22%, respectively. In addition, the viability at 250 µM in assay [6] (GCD = 100% viability) and in assay [7] (setting [12]) was 0% each time. Besides, the “3D sphere count of MDAMB231” value in assay [7] (0.025 uM) was 41(±2); in assay [7] (0.25 uM) it was 35(±3); in assay [7] (2.5 uM), 30(±4); in assay [7] (25 uM), 17(±4); in assay [7] (250 uM), 0(±0).

With `c1ccc2c(-c3ccc4c(c3)OCO4)ccc(OCCCCCCN3CCOCC3)c2c1` [Formula IV, 4-(6-(1-(benzo[d][1,3]dioxol-5-yl)naphthalen-4-yloxy)hexyl)morpholine], the IC50 worked out at 3.86 µM in assay [1]; 3.79 µM in assay [2] (48 h); 3.16 µM in assay [3]; 2.59 µM in assay [4] (Homo sapiens, MDA-MB-231, 168 h); 7.5 µM in assay [5] (168 h). The “3D sphere count of PC3” value is reported as 44(±3) in assay [6] (0.025 uM); 35(±3) in assay [6] (0.25 uM); 32(±3) in assay [6] (2.5 uM); 22(±3) in assay [6] (25 uM); 0(±0) in assay [6] (250 uM). For the same molecule, the viability at 0.025 µM in assay [6] (setting [8]) was found to be 59%; in assay [7] (setting [12]), 50%. Further, the viability at 0.25 µM in assay [6] (setting [9]) is 47%; in assay [7] (setting [12]) it was 44%. Besides, the viability at 2.5 µM in assay [6] (setting [10]) was 43%; in assay [7] (setting [12]), 31%. Also, the viability at 25 µM was found to be 29% in assay [6] (setting [11]) and 13% in assay [7] (setting [12]). For the same molecule, the viability at 250 µM in assay [6] (GCD = 100% viability) and in assay [7] (setting [12]) was 0% throughout. Also, the “3D sphere count of MDAMB231” value is listed as 40(±2) in assay [7] (0.025 uM); 35(±2) in assay [7] (0.25 uM); 25(±2) in assay [7] (2.5 uM); 11(±2) in assay [7] (25 uM); 0(±0) in assay [7] (250 uM).

On to `Cl.c1ccc2c(-c3ccc4c(c3)OCO4)ccc(OCCCCCCN3CCOCC3)c2c1` [Formula V, 4-(6-(1-(benzo[d][1,3]dioxol-5-yl)naphthalen-4-yloxy)hexyl)morpholine hydrochloride], for which the IC50 in assay [1] (hydrochloride) came to 9.25 µM; in assay [2] (hydrochloride) it was 6.03 µM; in assay [3] (hydrochloride) it was 9.77 µM; in assay [4] (hydrochloride) it was 2.21 µM; in assay [5] (hydrochloride), 3.98 µM. In addition, the “3D sphere count of PC3” value in assay [6] (0.025 uM) is on record as 58(±3); in assay [6] (0.25 uM), 49(±3); in assay [6] (2.5 uM), 41(±2); in assay [6] (25 uM), 30(±5); in assay [6] (250 uM), 0(±0). In assay [6] (setting [13]), the viability at 0.025 µM was 67%. The viability at 0.25 µM stood at 57% in assay [6] (setting [13]) and 47% in assay [7] (MDA-MB-231, read-out: % Viability of spheres (MDAMB231), 0.25 uM, GCD = 100% viability). The viability at 2.5 µM turned out to be 48% in assay [6] (setting [13]) and 33% in assay [7] (MDA-MB-231, read-out: % Viability of spheres (MDAMB231), 2.5 uM, GCD = 100% viability). The viability at 25 µM in assay [6] (setting [13]) was 35%; in assay [7] (MDA-MB-231, read-out: % Viability of spheres (MDAMB231), 25 uM, GCD = 100% viability), 23%. Moreover, the “3D sphere count of MDAMB231” value in assay [7] (0.025 uM) is 41(±5); in assay [7] (0.25 uM), 39(±3); in assay [7] (2.5 uM), 27(±3); in assay [7] (25 uM), 19(±4); in assay [7] (250 uM) it was 0(±0).

What is called IC50 is the concentration at which inhibition is half-maximal. A word on the viability: it is a per cent measure of how many cells are alive, often set against a control.

These data come from patent publication US12459930B2, “Compounds for the inhibition of unregulated cell growth” (GODAVARI BIOREFINERIES LIMITED, priority 2018, dated 2025).
